We go through 21 molecules from PubChem BioAssay AID264 (DTP/NCI, 2004).

Structures are written as SMILES. Values joined by “and” are separate entries in the source; they are usually repeats but may differ in a detail not shown here. Identical values can stand only once. Results filed as inconclusive are left out.

For the experiment, the system named is nude mice, LX-1 lung xenograft intrarenal, tumor weight T/C. Nature of the experiment: NCI In Vivo Anticancer Drug Screen. Data for tumor model Human Lung LX-1 Xenograft (intrarenal inoculation) in NU/NU Swiss (nude) mice. The conditions noted are these: endpoint: mean tumor weight change, higher = larger tumour. The essentials:
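Activity was scored by measuring tumors in treated animals and in vehicle controls, then reporting the treated result as a fraction of the control result.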
(In general: In xenograft studies the graft and the host belong to different species.)

Where [1] appears, read: dose: 300.0 mg/kg/injection, schedule: Q04DX003 (sc), vehicle: saline with Tween-80.
[2] abbreviates: dose: 600.0 mg/kg/injection, schedule: Q04DX003 (sc), vehicle: saline with Tween-80.
Where [3] appears, read: dose: 1200.0 mg/kg/injection, schedule: Q04DX003 (sc), vehicle: saline with Tween-80.
Where [4] appears, read: dose: 2400.0 mg/kg/injection, schedule: Q04DX003 (sc), vehicle: saline with Tween-80.
Where [5] appears, read: dose: 150.0 mg/kg/injection, schedule: Q04DX003 (sc), vehicle: saline with Tween-80.
Where [6] appears, read: dose: 0.25 mg/kg/injection, schedule: Q01DX010 (sc), vehicle: saline.
Where [7] appears, read: dose: 200.0 mg/kg/injection, schedule: Q01DX010 (sc), vehicle: Klucel (hydroxypropylcellulose) (HPC).
Where [8] appears, read: dose: 300.0 mg/kg/injection, schedule: Q04DX003 (sc), vehicle: Klucel (hydroxypropylcellulose) (HPC).
Where [9] appears, read: dose: 400.0 mg/kg/injection, schedule: Q01DX010 (sc), vehicle: Klucel (hydroxypropylcellulose) (HPC).
[10] abbreviates: dose: 600.0 mg/kg/injection, schedule: Q04DX003 (sc), vehicle: Klucel (hydroxypropylcellulose) (HPC).
Where [11] appears, read: dose: 1200.0 mg/kg/injection, schedule: Q04DX003 (sc), vehicle: Klucel (hydroxypropylcellulose) (HPC).

Consider `Cn1cnc([N+](=O)[O-])c1[Se]c1nc(N)nc2nc[nH]c12`, for which the T/C reads like this: (dose: 12.5 mg/kg/injection, schedule: Q01DX010 (sc), vehicle: water) 63 % of control; (dose: 25.0 mg/kg/injection, schedule: Q01DX010 (sc), vehicle: water) 68 % of control; (dose: 50.0 mg/kg/injection, schedule: Q01DX010 (sc), vehicle: water) 176 % of control; (dose: 100.0 mg/kg/injection, schedule: Q01DX010 (sc), vehicle: water) 68 % of control.

As for `COc1cccc2c1C(=O)c1c(O)c3c(c(O)c1C2=O)C[C@@](O)(/C(C)=N/NC(=O)c1ccc(Cl)cc1)C[C@@H]3OC1CC(N)C(O)C(C)O1` (stereo not given in full), the T/C is 156 % of control (dose: 4.0 mg/kg/injection, schedule: Q01DX010 (sc), vehicle: water); 64 % of control (dose: 6.0 mg/kg/injection, schedule: Q04DX003 (sc), vehicle: water); 42 % of control (dose: 8.0 mg/kg/injection, schedule: Q01DX010 (sc), vehicle: water); 43 % of control (dose: 16.0 mg/kg/injection, schedule: Q01DX010 (sc), vehicle: water); 20 % of control and 33 % of control (dose: 96.0 mg/kg/injection, schedule: Q04DX003 (sc), vehicle: water).

As to `CCOC(=O)C1(c2ccccc2)C(=O)Oc2ccccc21` (stereo not given), the T/C was 54 % of control under setting [1], 103 % of control under setting [2], 73 % of control under setting [3] and 74 % of control under setting [4].

Regarding `Cc1oc2c(C)c3oc(=O)cc(C)c3cc2c1CCl`, the T/C under setting [5] is 82 % of control, the T/C under setting [1] was 95 % of control, the T/C under setting [2] is 60 % of control and the T/C under setting [3] was 76 % of control.

`C/C=C/C=C/c1cc2cc3c(c(O)c2c(=O)[nH]1)C1(CC3)C(O)=c2c(=O)c3c(=O)cc(OC)c(=O)c=3c(=O)c2=C1O` (stereo not given): the T/C by setting is: (dose: 0.5 mg/kg/injection, schedule: Q01DX010 (sc), vehicle: DMSO) 221 % of control; (dose: 1.0 mg/kg/injection, schedule: Q01DX010 (sc), vehicle: DMSO) 162 % of control; (dose: 2.0 mg/kg/injection, schedule: Q01DX010 (sc), vehicle: DMSO) 92 % of control and 104 % of control; (dose: 4.0 mg/kg/injection, schedule: Q01DX010 (sc), vehicle: DMSO) 103 % of control and 111 % of control; (dose: 8.0 mg/kg/injection, schedule: Q01DX010 (sc), vehicle: DMSO) 106 % of control; (dose: 16.0 mg/kg/injection, schedule: Q01DX010 (sc), vehicle: DMSO) 86 % of control.

Take `C[C@@H](CN1CC(=O)NC(=O)C1)N1CC(=O)NC(=O)C1`: the T/C runs as follows: (dose: 50.0 mg/kg/injection, schedule: Q01DX010 (sc), vehicle: saline with Tween-80) 91 % of control; (dose: 100.0 mg/kg/injection, schedule: Q01DX010 (sc), vehicle: saline with Tween-80) 34 % of control.

As for `O=Cc1ccc(O)c(O)c1`, the T/C runs as follows: (dose: 100.0 mg/kg/injection, schedule: Q04DX003 (sc), vehicle: saline with Tween-80) 172 % of control; (dose: 200.0 mg/kg/injection, schedule: Q04DX003 (sc), vehicle: saline with Tween-80) 100 % of control; (dose: 400.0 mg/kg/injection, schedule: Q04DX003 (sc), vehicle: saline with Tween-80) 86 % of control; (dose: 800.0 mg/kg/injection, schedule: Q04DX003 (sc), vehicle: saline with Tween-80) 73 % of control.

As to `CCC(CC)COC(=O)c1ccccc1C(=O)OCC(CC)CC`, the T/C reads like this: under setting [1], 56 % of control; under setting [2], 71 % of control; under setting [3], 64 % of control; under setting [4], 73 % of control.

Turning to `C[CH2][Sn]([CH2]C)([O]S(C)(=O)=O)[O]S(C)(=O)=O`, the T/C is, setting by setting: (dose: 3.13 mg/kg/injection, schedule: Q04DX003 (sc), vehicle: saline with Tween-80) 107 % of control; (dose: 6.25 mg/kg/injection, schedule: Q04DX003 (sc), vehicle: saline with Tween-80) 109 % of control; (dose: 12.5 mg/kg/injection, schedule: Q04DX003 (sc), vehicle: saline with Tween-80) 102 % of control; (dose: 25.0 mg/kg/injection, schedule: Q04DX003 (sc), vehicle: saline with Tween-80) 99 % of control.

`ClCc1ccc2ccccc2n1`: the T/C under setting [5] was 158 % of control, the T/C under setting [1] was 105 % of control and the T/C under setting [2] is 77 % of control.

With `CC[C@]1(O)C[C@H]2CN(CCc3c([nH]c4ccccc34)[C@@](C(=O)OC)(c3cc4c(cc3OC)N(C)[C@H]3[C@@](O)(C(=O)OC)[C@H](OC(C)=O)[C@]5(CC)C=CCN6CC[C@]43[C@@H]65)C2)C1`, the T/C reads like this: under setting [6], 52 % of control; (dose: 1.0 mg/kg/injection, schedule: Q01DX010 (sc), vehicle: saline) 68 % of control; (dose: 2.0 mg/kg/injection, schedule: Q01DX010 (sc), vehicle: saline) 28 % of control.

Take `COc1c(CNC(=O)CCl)cc2[nH]c(C)cc2c1CNC(=O)CCl`: the T/C is, setting by setting: (dose: 100.0 mg/kg/injection, schedule: Q01DX010 (sc), vehicle: Klucel (hydroxypropylcellulose) (HPC)) 76 % of control; under setting [7], 52 % of control; under setting [8], 91 % of control; under setting [9], 37 % of control; under setting [10], 90 % of control; under setting [11], 68 % of control.

In the case of `COc1cccc(C2NC(=O)c3c(n[nH]c3N)S2)c1O` (stereo not given), the T/C by setting is: under setting [1], 171 % of control; under setting [2], 77 % of control; under setting [3], 95 % of control; under setting [4], 162 % of control.

Take `Clc1ccc(C2SC=Cc3ccccc32)cc1` (stereo not given): the T/C is, setting by setting: under setting [8], 64 % of control; under setting [10], 47 % of control; under setting [11], 106 % of control.

`CCN1C=C/C(=C\C=C/c2cc[n+](CC)c3ccccc23)c2ccccc21`: under setting [6], the T/C is 195 % of control.

Take `CC[n+]1c(-c2ccccc2)c2cc(N)ccc2c2ccc(N)cc21`: the T/C is, setting by setting: (dose: 15.0 mg/kg/injection, schedule: Q04DX003 (sc), vehicle: saline) 80 % of control; (dose: 30.0 mg/kg/injection, schedule: Q04DX003 (sc), vehicle: saline) 81 % of control; (dose: 60.0 mg/kg/injection, schedule: Q04DX003 (sc), vehicle: saline) 33 % of control.

For `NC(=O)CC(N)C(=O)O` (stereo not given), the T/C was 87 % of control (dose: 800.0 mg/kg/injection, schedule: Q04DX003 (sc), vehicle: saline); 102 % of control (dose: 1600.0 mg/kg/injection, schedule: Q04DX003 (sc), vehicle: saline); 77 % of control (dose: 3200.0 mg/kg/injection, schedule: Q04DX003 (sc), vehicle: saline).

In the case of `O=c1[nH]c(=O)n(C2CC(O)C(CO)O2)cc1Br` (stereo not given), the T/C reads like this: under setting [7], 35 % of control; under setting [9], 35 % of control; (dose: 800.0 mg/kg/injection, schedule: Q01DX010 (sc), vehicle: Klucel (hydroxypropylcellulose) (HPC)) 27 % of control.

As to `c1cc(-c2cc3ccc(C4=NCCN4)cc3[nH]2)ccc1C1=NCCN1`, the T/C was 68 % of control (dose: 25.0 mg/kg/injection, schedule: Q04DX003 (sc), vehicle: saline); 67 % of control (dose: 50.0 mg/kg/injection, schedule: Q04DX003 (sc), vehicle: saline); 73 % of control (dose: 100.0 mg/kg/injection, schedule: Q04DX003 (sc), vehicle: saline).

Take `CCn1cnc2c(=S)nc[nH]c21`: the T/C (dose: 150.0 mg/kg/injection, schedule: Q04DX003 (sc), vehicle: saline) is 159 % of control and the T/C (dose: 600.0 mg/kg/injection, schedule: Q04DX003 (sc), vehicle: saline) was 224 % of control.

In the case of `CC1(C)CC23C4COC(=O)C2CCC1C3CC4=O` (stereo not given), the T/C was 88 % of control (dose: 150.0 mg/kg/injection, schedule: Q04DX003 (sc), vehicle: DMSO); 51 % of control (dose: 300.0 mg/kg/injection, schedule: Q04DX003 (sc), vehicle: DMSO); 67 % of control (dose: 600.0 mg/kg/injection, schedule: Q04DX003 (sc), vehicle: DMSO); 63 % of control (dose: 1200.0 mg/kg/injection, schedule: Q04DX003 (sc), vehicle: DMSO).
